Calls of active or inactive are those of the source.
Assays:
[1] = target: Interleukin-17A (Homo sapiens) (UniProt Q16552); experiment: Binding affinity to recombinant human IL-17A assessed as increase in deuterium uptake at 103 to 114 residues at 10 uM after 10 to 3600 secs by HDX-MS
[2] = target: Interleukin-17A (Homo sapiens) (UniProt Q16552); experiment: Binding affinity to recombinant human IL-17A assessed as protection from deuterium uptake at 90 to 101 residues at 10 uM after 10 to 3600 secs by HDX-MS
[3] = target: Interleukin-17A (Homo sapiens) (UniProt Q16552); experiment: Binding affinity to recombinant human IL-17A assessed as protection from deuterium uptake at 58 to 71 residues at 10 uM after 10 to 3600 secs by HDX-MS
[4] = target: Interleukin-17A (Homo sapiens) (UniProt Q16552); experiment: Binding affinity to recombinant human IL-17A assessed as protection from deuterium uptake at 92 to 99 residues at 10 uM after 10 to 3600 secs by HDX-MS
[5] = target: Interleukin-17A (Homo sapiens) (UniProt Q16552); experiment: Binding affinity to recombinant human IL-17A assessed as increase in deuterium uptake at 102 to 120 residues at 10 uM after 10 to 3600 secs by HDX-MS
[6] = target: Interleukin-17A (Homo sapiens) (UniProt Q16552); experiment: Binding affinity to recombinant human IL-17A assessed as protection from deuterium uptake at 92 to 101 residues at 10 uM after 10 to 3600 secs by HDX-MS
[7] = target: Interleukin-17A (Homo sapiens) (UniProt Q16552); experiment: Binding affinity to recombinant human IL-17A assessed as protection from deuterium uptake at 58 to 72 residues at 10 uM after 10 to 3600 secs by HDX-MS
[8] = target: Interleukin-17A (Homo sapiens) (UniProt Q16552); experiment: Binding affinity to recombinant human IL-17A assessed as increase in deuterium uptake at 104 to 116 residues at 10 uM after 10 to 3600 secs by HDX-MS
[9] = target: Interleukin-17A (Homo sapiens) (UniProt Q16552); experiment: Binding affinity to recombinant human IL-17A assessed as increase in deuterium uptake at 102 to 116 residues at 10 uM after 10 to 3600 secs by HDX-MS
[10] = target: Interleukin-17A (Homo sapiens) (UniProt Q16552); experiment: Binding affinity to recombinant human IL-17A assessed as protection from deuterium uptake at 99 to 103 residues at 10 uM after 10 to 3600 secs by HDX-MS
[11] = target: Interleukin-17A (Homo sapiens) (UniProt Q16552); experiment: Binding affinity to recombinant human IL-17A assessed as increase in deuterium uptake at 100 to 116 residues at 10 uM after 10 to 3600 secs by HDX-MS

Measured: Activity

Chain of Interleukin-17A (Homo sapiens) (Q16552 whole entry, the tested form may be a part): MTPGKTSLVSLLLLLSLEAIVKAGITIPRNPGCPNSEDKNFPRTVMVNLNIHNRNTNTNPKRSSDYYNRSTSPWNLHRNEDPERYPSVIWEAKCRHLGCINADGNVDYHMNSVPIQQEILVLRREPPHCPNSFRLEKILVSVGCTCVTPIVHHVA

O=C1CC2(CCCC2)CC(=O)N[C@H](Cc2ccc(NC(=O)[C@H](Cc3ccccc3Cl)NC(=O)Cc3cccc(O)c3)cc2)C(=O)NCCOCCOCCN1
active: all assays above

O=C1CNC(=O)[C@@H](Cc2ccc(NC(=O)[C@H](Cc3ccccc3Cl)NC(=O)Cc3ccccc3)cc2)NC(=O)CC2(CCCC2)CC(=O)N[C@H](C(=O)O)CCCCN1
active: all assays above

O=C1CNC(=O)[C@@H](Cc2ccc(NC(=O)[C@H](Cc3ccccc3Cl)NC(=O)Cc3ccccc3)cc2)NC(=O)CC2(CCCC2)CC(=O)NCCCCCN1
active: all assays above
